Test results from patent publication US11529340B2 (priority 2016, dated 2022).
Entries after “also recorded” stand apart in the source; their conditions may differ. Where two headings read alike, the source gives them in different places.

Key:
mice [1] = experiment: Oral gavage antinociception (% MPE) in mice; assay type: in vivo; settings: for time of peak antinociceptive effect: oral gavage; for % MPE: oral, 5 mg/kg
Method: Animals are restrained by the scruff and held upright (vertically) to maintain a straight line from the mouth to the esophagus. Prior to dosing, the distance from the oral cavity to the caudal point of the sternum is gauged with the gavage needle. Using a bulb-tipped gastric gavage needle attached to a 1 mL syringe, the needle is passed along the roof of the animal's mouth and into the esophagus, stopping at the pre-measured distance. The drug is slowly injected and the needle removed. Drugs are administered in a volume of 10 mL/kg.

[2] = test system: CFA-induced hyperalgesia in mice; experiment: Hargreaves assay, CFA-induced inflammatory hyperalgesia; assay type: in vivo; settings: for ED50: Mus musculus
mice [3] = experiment: In vivo antagonism of OMI and BOMI antinociception by opioid antagonists; settings: agonist administered intrathecally and intracerebroventricularly
Method: FIGS. 1a-1d show antagonism studies of OMI and BOMI (6) in vivo from Example 2.
OMI (Portoghese, P. S., et al., J. Med. Chem. 1990, 33, 1714-20) and BOMI were tested in vivo. […] Oral gavage of OMI and (6) produced the peak antinociceptive effect at 30 minutes; further they were taken in vivo studies in mice and challenged by antagonists such as NTI, norBNI and β-FNA. The results are depicted in FIGS. 1a-1d. […] Therefore, it was concluded that OMI and (6) both are MOR-DOR heteromer-selective agonists.

[4] = test system: HEK-293 cells transfected with opioid receptors (mu, delta, kappa homomers; mu-delta, mu-kappa, kappa-delta heteromers); experiment: Intracellular calcium release assay (FLIPR); assay type: cell-based; settings: HEK-293 with chimeric Δ6-Gqi4-myr, opioid receptor homomers and heteromers
Method: The target compounds were tested for agonist activity using an intracellular calcium release assay. Briefly, HEK-293 cells were transfected with a chimeric Δ6-Gqi4-myr protein employed to measure intracellular Ca^+2 ion release upon receptor activation. Cells stably expressing the chimeric protein were selected from transiently transfected cells in zeocin-containing medium (DMEM+10% fetal bovine serum+1% penicillin/streptomycin+[…] zeocin). Opioid receptors were transiently transfected using different combinations of DNA for heteromers (mu-delta, mu-kappa, kappa-delta) or for singly expressing homomers (mu, delta, kappa). Intracellular calcium release was measured using a FLIPR calcium kit (Molecular Devices) in a FlexStation3 apparatus. For each compound, concentration-response profiles were established by measuring the fluorescence for 90 seconds after addition of the compound and determining the peak effect (maximum-minimum). A concentration-response curve was plotted for the change in Relative Fluorescence Units (ΔRFU) vs. concentration. The calcium mobilization of the antagonist NTI and partial agonist OMI were studied.

mice [5] = experiment: Antinociceptive potency (% MPE) after i.t. or i.c.v. administration; assay type: in vivo
Method: OMI (4) or BOMI (6) were administered via either i.t. or i.c.v. routes and percent maximum possible antinociception (% MPE) determined at 5 or 10 min post-treatment, respectively.

mice [6] = experiment: Antinociceptive tolerance, day 1 vs day 2 % MPE; assay type: in vivo; settings: i.t.
Method: Eighty percent effective doses of OMI (4) or BOMI (6) were administered either i.c.v. or i.t. once on day 1 and again on day 2 and the % MPE determined on both days.

mice [7] = experiment: Naloxone withdrawal jumping protocol (dependence); assay type: in vivo; settings: for dependence: naloxone-precipitated
Method: Morphine, OMI and BOMI were tested for dependence using the naloxone withdrawal jumping protocol (Marshall, I. et al., Br. J. Pharmacol. 1969, 37, 505P-506P; and El-kadi, A. O. et al., General Pharmacology: The Vascular System 1994, 25, 1505-1510). On day one the ED80 dose was injected 3 times per day 4 hours apart using the s.c. route of administration. On day 2 two times ED80 and day 3 and 4 with four times the ED80 were injected at the same times used on day one. On the fifth day each animal received a bolus of the top dose followed three hours later by a single dose of naloxone s.c. (10 or 50 mg/kg) and placed in individual circular Plexiglas observation chambers (6.5″×9″). […] At 10 mg/kg and 50 mg/kg naloxone precipitated withdrawal in the morphine-treated animals with a mean 91.5 jumps and 99.3 jumps, respectively. The average number of jumps for both OMI and BOMI after both doses of naloxone was 1 jump.

[8] = test system: MORs and DORs in CFA-inflamed mice; experiment: Antagonism of Lo-OMI anti-hyperalgesia by opioid antagonists (Hargreaves, CFA); assay type: in vivo; settings: intraplantar and subcutaneous; β-FNA 24 hours before, others co-administered
mice [9] = settings: cited from earlier work
[10] = test system: SNI-induced allodynia in mice; experiment: Spared nerve injury (SNI)-induced mechanical allodynia, electronic von Frey; settings: subcutaneous
[11] = test system: thermal nociceptive responses in naive mice; experiment: Hargreaves assay, naive mice; assay type: in vivo
[12] = test system: thermal nociceptive responses in mice; experiment: Hot water tail flick test, intrathecal injection, naive mice; assay type: in vivo
Method: Subjects were given an intrathecal injection of loperamide, OMI, or combination, and post-drug response were analyzed as a % of maximum possible effect, which was used to generate dose-response curves.
Thermal nociception was measured either using a warm water tail flick test or using the Hargreaves hindpaw method as described previously (Hargreaves, K. et al., Pain 32: 77-88, 1988). Briefly, animals were placed on a heated glass floor (30° C.) and a small plastic box restricted their movement. After allowing the animals to acclimate to the testing environment for a minimum of 15 minutes, a radiant heat lamp was shone on the left hindpaw until the animal withdrew the paw. Paw withdrawal latencies (PWLs) were measured by an IITC plantar stimulator analgesia meter, and a cutoff time of 20 seconds was used to prevent tissue damage. An average of 3-5 PWLs were taken, with a minimum of 30 seconds between tests.
Data Analysis: The ED50, in nanomoles with 95% confidence limits, of all agonists and combinations were calculated using the graded dose-response curve method of Tallarida and Murray (Tallarida, R. J. and Murray, R. B., Manual of pharmacological calculations with computer programs, pp. 26-31, Springer-Verlag, NY, 1987). […] Isobolographic analyses were performed using the numerical method (Tallarida, Pain 49: 93-97, 1992; Ossipov et al., Anesthesiology 86:1-9 1997). […]

[13] = test system: light-driven mEPSC frequency in spinal cord slices from Nav1.8-ChR2 mice; experiment: Spinal cord slice electrophysiology: inhibition of 470 nm light-evoked mEPSCs; assay type: cell-based; settings: increasing concentrations superfused on slice
mice [14] = settings: intrathecal; cited from earlier work
[15] = sc, subcutaneous (systemic), CFA-inflamed, read-out: ED50 (anti-hyperalgesia)
[16] = systemic, CFA-inflamed, loperamide + BOMI co-administered, read-out: ED50 of the drug with the other drug (loperamide or BOMI) present
[17] = intraplantar, CFA-inflamed, loperamide + BOMI co-administered
[18] = naloxone s.c. 10 mg/kg after escalating s.c. dosing
[19] = naloxone s.c. 50 mg/kg after escalating s.c. dosing
[20] = Mus musculus, sc, 0.75 h, subcutaneous, CFA-naive, tested 45 minutes later, read-out: ED50
[21] = intraplantar, naive, tested 15 minutes later
[22] = topical solution on inflamed hindpaw, CFA

CN1CC[C@]23c4c5ccc(O)c4O[C@H]2c2c(c4ccccc4n2Cc2ccccc2)C[C@@]3(O)C1C5 [BOMI (6), (4bS,8aS,14bR)-14-benzyl-7-methyl-5,6,7,8,8a,9,14,14b-octahydro-4,8-methanobenzofuro[2,3-a]pyrido[4,3-b]carbazole-1,8a-diol]
time of peak antinociceptive effect (mice [1]): 30 min | % MPE (mice [1]; 20 min): 38.3 ± 10.4 % MPE | % MPE (mice [1]; 30 min): 19.6 ± 4.8 % MPE | % MPE (mice [1]; 60 min): 42.8 ± 6.2 % MPE | % MPE (mice [1]; 120 min): 38.4 ± 8.4 % MPE | ED50 [2, 15]: 0.08 mg/kg | ED50 [2, 16]: 0.003 mg/kg | ED50 (anti-hyperalgesia) ([2]; intraplantar, CFA-inflamed): 0.34 nmol | ED50 of the drug when the other drug (loperamide or BOMI) is also present [2, 17]: 0.02 nmol | antagonism by β-FNA (mice [3]): antagonized by β-FNA; also recorded: antagonism of (6) by β-FNA was more significant | calcium mobilization profile ([4]; listed as 6): predominantly MOR-DOR heteromer-selective | calcium mobilization profile ([4]; listed as BOMI): mixed, stimulation of MOR most active | potency relative to parent compound OMI (4) (mice [5]; i.c.v., % MPE at 10 min): three times more potent | potency relative to parent compound OMI (4) (mice [5]; i.t., % MPE at 5 min): 20 times | antinociceptive tolerance (mice [6]): neither agent injected i.t. produced antinociceptive tolerance | antinociceptive tolerance (mice [6]; listed as 6): did not produce tolerance | number of jumps in 10 minutes (mean) (mice [7]; [18]): 1 jumps | number of jumps in 10 minutes (mean) (mice [7]; [19]): 1 jumps | dependence (mice [7]; listed as 6): neither OMI nor (6) produced dependence | dependence (mice [7]; listed as BOMI): did not create any dependence

Oc1ccc2c3c1O[C@H]1c4[nH]c5ccccc5c4C[C@@]4(O)[C@@H](C2)N(CC2CC2)CC[C@]314 [NTI, naltrindole]
calcium mobilization profile [4]: devoid of any calcium mobilization; also recorded: did not show calcium mobilization in any cell line tested | reversal of the anti-hyperalgesic effects of Lo-OMI [8]: significantly reversed the anti-hyperalgesic effects of Lo-OMI in a dose-dependent manner

Clc1cccc(Cl)c1N=C1NCCN1 [clonidine]
impairment of rotarod performance / motor function (mice [9]; literature or earlier results, route as stated): dose-dependently and fully impairs rotarod performance

COC(=O)/C=C/C(=O)N[C@@H]1CC[C@@]2(O)[C@H]3Cc4ccc(O)c5c4[C@@]2(CCN3CC2CC2)[C@H]1O5 [β-FNA, beta-funaltrexamine]
reversal of the anti-hyperalgesic effects of Lo-OMI [8]: significantly reversed the anti-hyperalgesic effects of Lo-OMI in a dose-dependent manner

CN1CC[C@]23c4c5ccc(O)c4O[C@H]2c2[nH]c4ccccc4c2C[C@@]3(O)[C@H]1C5 [OMI (4), oxymorphindole]
time of peak antinociceptive effect (mice [1]): 30 min | % MPE (mice [1]; 20 min): 38.0 ± 8.4 % MPE | % MPE (mice [1]; 30 min): 29.5 ± 4.5 % MPE | % MPE (mice [1]; 60 min): 38.5 ± 10.7 % MPE | time of peak anti-allodynia post-injection [10]: 1 h | ED50 [11, 20]: 5.13 mg/kg | ED50 [11, 21]: 33.7 nmol | ED50 [2, 15]: 1.12 mg/kg | ED50 (anti-hyperalgesia) ([2]; intraplantar, CFA-inflamed): 12.3 nmol | ED50 (anti-hyperalgesia) [2, 22]: 166 µM | antagonism by β-FNA (mice [3]): antagonized by β-FNA | calcium mobilization profile [4]: demonstrated a profile of MOR-DOR heteromer selectivity | calcium mobilization profile ([4]; listed as OMI): selective mobilization in the MOR-DOR co-expressing cell line | ED50 [12]: 3.52 nmol | inhibition of light-driven mEPSC frequency [13]: inhibited mEPSC frequency in a concentration-dependent manner | interaction with the MOR agonist morphine (mice [14]): synergized with the MOR agonist morphine | antinociceptive tolerance (mice [6]): neither agent injected i.t. produced antinociceptive tolerance | antinociceptive tolerance (mice [6]; listed as OMI): did not produce tolerance | number of jumps in 10 minutes (mean) (mice [7]; [18]): 1 jumps | number of jumps in 10 minutes (mean) (mice [7]; [19]): 1 jumps | dependence (mice [7]; listed as OMI): neither OMI nor (6) produced dependence; also recorded: did not create any dependence

CN(C)C(=O)C(CCN1CCC(O)(c2ccc(Cl)cc2)CC1)(c1ccccc1)c1ccccc1 [loperamide]
time of peak anti-allodynia post-injection [10]: 1 h | ED50 [11, 20]: 12.4 mg/kg | ED50 [11, 21]: 57.2 nmol | ED50 [2, 15]: 2.42 mg/kg | ED50 [2, 16]: 0.06 mg/kg | ED50 (anti-hyperalgesia) ([2]; intraplantar, CFA-inflamed): 6.37 nmol | ED50 of the drug when the other drug (loperamide or BOMI) is also present [2, 17]: 0.5 nmol | ED50 (anti-hyperalgesia) [2, 22]: 227 µM | ED50 [12]: 5.44 nmol | inhibition of light-driven mEPSC frequency [13]: inhibited mEPSC frequency in a concentration-dependent manner

C[C@]12N[C@H](Cc3ccccc31)c1ccccc12 [MK801]
ED50 for reduction in rotarod performance (mice [9]; intrathecal): 11 nmol | reduction in rotarod performance (mice [9]; intrathecal): 80%

CN1CC[C@]23c4c5ccc(O)c4O[C@H]2[C@@H](O)C=C[C@H]3[C@H]1C5 [morphine]
number of jumps in 10 minutes (mean) (mice [7]; [18]): 91.5 jumps | number of jumps in 10 minutes (mean) (mice [7]; [19]): 99.3 jumps

C=CC[N+]1(C)CC[C@]23c4c5ccc(O)c4O[C@H]2C(=O)CC[C@@]3(O)[C@H]1C5 (stereo partly drawn) [naloxone methiodide]
reversal of the anti-hyperalgesic effects of Lo-OMI [8]: significantly reversed the anti-hyperalgesic effects of Lo-OMI in a dose-dependent manner; also recorded: completely ablated the behavioral anti-hyperalgesia
